Laboratory results as given in patent publication US20230312587A1, “PTERIDINONE COMPOUNDS AND USES THEREOF” (Vertex Pharmaceutical Incorporated, priority 2018, published 2023).

How the values were obtained:
[1] = tested on: Colo205-TCF/LEF-Luciferase (Luc) tumor; test: In vivo inhibition of TCF/LEF reporter activity in Colo-205 tumors; parameters: concentration or dose not given beside the values; conditions: TCF/LEF luciferase reporter in Colo-205 tumors, nu/nu mice, oral gavage
Method: Colo205-TCF/LEF-Luciferase (Luc) tumor cells were expanded in complete DMEM cell culture media [DMEM (Life Technologies, product #11960-051) media supplemented with 10% FBS (Hyclone, catalog #SH30071.03), antimycotic/antibiotic (Life Technologies, product #15240-062), and Glutamax (Life Technologies, product #35050-061)] with 1 ug/ml puromycin. After reaching confluency/high density, the loosely attached cells in media were transferred from the flask to 50 ml conical tubes. Tumor cells adhered to plastic were detached with trypsin and combined with cells in the conical tubes. The tumor cells were triturated, counted, and pelleted by centrifugation. Cell pellets were resuspended in 0.9% injectable saline (6×10^7 cells/ml). A 50 ul volume (3×10^6 cells) was injected subcutaneously in the flanks of 4-6 wk old female nu/nu mice (Charles River Laboratories). Approximately 13-16 days after implantation, tumors between 200-500 mm^3 were selected (based on caliper measurements and applying the formula […]) and randomized into groups of n=4. Mice were dosed by oral gavage with compound dissolved in 1:3:5:1 EtOH:DMSO:PEG-400:H2O at a rate of 10 ml/kg or 1:3:5:1 EtOH:DMSO:PEG-400:H2O alone (Vehicle Control). Tumors were collected from mice euthanized by CO2 inhalation and snap frozen in liquid nitrogen. Tumors were stored in a −80 degrees C. freezer until they were processed.
Tumors were thawed on ice and homogenized in cold Lysis Buffer (20 mM Tris-HCl (pH 7.5), 150 mM NaCl, 1 mM Na2EDTA, 1 mM EGTA, 1% Triton, 2.5 mM sodium pyrophosphate, 1 mM beta-glycerophosphate, 1 mM Na3VO4, 1 μg/ml leupeptin, 0.05% SDS) using a closed tissue grinder system (Fisher Scientific, Cat #02-542-09) on ice according to manufacturer's instructions. For 100 mg of tumor, 500 uL of Lysis Buffer was used. Tumor lysate was transferred to a pre-chilled microcentrifuge tube and centrifuged at 10,000×g for 10 minutes at 4 degrees C. Supernatant was transferred to a new pre-chilled microcentrifuge tube and was used immediately for analysis of protein content and luciferase activity.
Protein content of tumor lysate supernatant was determined using the BCA assay (Life Technologies Cat #23225). Luciferase activity of tumor lysate supernatant was determined by addition of Steady-Glo luminescence reagent (Promega, Cat #E2550) according to manufacturer's instructions and measurement on a Pherastar luminescence plate reader (BMG Labtech). Luciferase activity was normalized to protein content.

[2] = tested on: β-catenin-TCF-mediated reporter transcription activity in Colo 205 cells; test: Colo 205 reporter assay (TCF/LEF luciferase); assay type: cell-based; conditions: Homo sapiens, COLO 205, 5 h, Colo 205 TCF/LEF luciferase reporter, five hours after addition of compound; read-out: TCF reporter Colo205 IC50
Procedure, shortened: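 Luciferase signal from a TCF/LEF-driven reporter, stably integrated in Colo 205 colon cancer cells, was measured 5 h after compound addition.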

[3] = molecular target: HEK293 membranes over-expressing WFS-1 (Homo sapiens (Human), UniProt O76024); test: Radioligand displacement assay (tritiated Compound 136 probe); assay type: binding; conditions: displacement of tritiated Compound 136
Method: Cell pellets were re-suspended in 15 times packed cellular volume in 4° C. hypotonic lysis buffer (10 mM HEPES, pH 7.5 containing 1×Protease inhibitor, 0.5 mM EDTA and 2 mM DTT). Re-suspended cells were homogenized with 6-8 strokes in a dounce homogenizer kept on ice. Lysates were centrifuged at 500×G for 15 minutes at 4° C. without brake to decelerate rotor. Following centrifugation, remove the supernatant to a fresh tube and place on ice (Supernatant 1). Repeat the above steps on the lysed cell pellet using 0.5 the original volume of hypotonic lysis buffer and remove the 500× G supernatant (Supernatant 2) and combine with Supernatant 1. Transfer the combined supernatants to a 45-Ti ultracentrifuge tube and centrifuge at 100,000× G for 30 minutes. Following ultracentrifugation, carefully remove the supernatant and discard. Resuspend the 100,000× G pellet in cold resuspension buffer (10 mM HEPES, pH 7.5, 300 mM NaCl containing 1× Protease inhibitor, 1× EDTA and 2 mM DTT). Centrifuge sample at 500× G for 10 minutes with no brake and remove any cloudy, flocculent material. Resuspend pellet in resuspension buffer to approximately 2 mg/mL of protein concentration for use in radioligand binding assay and immunoblotting.
The binding affinities of compounds were determined by measuring the competitive displacement of a tritiated Compound 136 probe from purified HEK293 membranes over-expressing WFS-1. The data for the radioligand displacement assay are summarized in Table 47: A<0.06 μM; 0.06 μM≤B<0.6 μM; 0.6 μM≤C<3.0 μM; D≥3.0 μM.
The probe Kd was determined by titrating tritiated probe under the standard assay conditions plus and minus excess unlabeled probe and fitting the resulting data to a “One site—Total and nonspecific binding” model in Graphpad Prism, version 6.0, San Diego, CA, US. Initially, 0.25 μl of compound dissolved in DMSO at varying concentrations was dispensed to a 384 well plate. Membrane and probe were both prepared at 2× their final concentration in 1× assay buffer as described above. 25 μL of membrane was added to the wells and incubated for 10 minutes. 25 μL of diluted probe was then added to the wells. The assay was incubated for 90 minutes at room temperature. The entire assay volume was then transferred to Millipore GF/B 384-well plates pretreated with 15 μL 0.5% PEI. The filter plates were washed 3× with 75 μL 25 mM TRIS, ph7.5, 0.1% BSA and then dried overnight. Following addition of 45 μL UltimaGold scintillant, the samples were counted in a Perkin Elmer Topcount. The radioactivity remaining is a measure of bound probe. From the bound probe vs concentration of compound titration curve, the IC50 is determined by fitting the data to a standard 3 parameter IC50 model using either Graphpad Prism, version 6.0, San Diego, CA, US, or using GeneData Analyzer, Basel, Switzerland.

Colo-205 cells = test: Calcium flux assay (FLIPR Calcium 5); assay type: cell-based; conditions: Homo sapiens, COLO 205, 0.6 h, FLIPR Calcium 5, measured over 36 minutes
Method: Compounds described herein induced ER stress by causing intracellular calcium flux. Calcium flux was measured in Colo-205 cells using the FLTPR® Calcium 5 Assay Kit according to manufacter's protocol (Molecular Devices, Cat. #R8186) on a FLIPR3 system (Molecular Devices). Calcium flux is measured over 36 minutes. The Colo-205 calcium flux assay data are summarized in Table 47: A<0.6 μM; 0.6 μM≤B<2.0 μM; 2.0 μM≤C<10.0 μM; D≥10.0 μM.

HEK293 membranes over-expressing WFS-1, sequence (O76024 whole entry): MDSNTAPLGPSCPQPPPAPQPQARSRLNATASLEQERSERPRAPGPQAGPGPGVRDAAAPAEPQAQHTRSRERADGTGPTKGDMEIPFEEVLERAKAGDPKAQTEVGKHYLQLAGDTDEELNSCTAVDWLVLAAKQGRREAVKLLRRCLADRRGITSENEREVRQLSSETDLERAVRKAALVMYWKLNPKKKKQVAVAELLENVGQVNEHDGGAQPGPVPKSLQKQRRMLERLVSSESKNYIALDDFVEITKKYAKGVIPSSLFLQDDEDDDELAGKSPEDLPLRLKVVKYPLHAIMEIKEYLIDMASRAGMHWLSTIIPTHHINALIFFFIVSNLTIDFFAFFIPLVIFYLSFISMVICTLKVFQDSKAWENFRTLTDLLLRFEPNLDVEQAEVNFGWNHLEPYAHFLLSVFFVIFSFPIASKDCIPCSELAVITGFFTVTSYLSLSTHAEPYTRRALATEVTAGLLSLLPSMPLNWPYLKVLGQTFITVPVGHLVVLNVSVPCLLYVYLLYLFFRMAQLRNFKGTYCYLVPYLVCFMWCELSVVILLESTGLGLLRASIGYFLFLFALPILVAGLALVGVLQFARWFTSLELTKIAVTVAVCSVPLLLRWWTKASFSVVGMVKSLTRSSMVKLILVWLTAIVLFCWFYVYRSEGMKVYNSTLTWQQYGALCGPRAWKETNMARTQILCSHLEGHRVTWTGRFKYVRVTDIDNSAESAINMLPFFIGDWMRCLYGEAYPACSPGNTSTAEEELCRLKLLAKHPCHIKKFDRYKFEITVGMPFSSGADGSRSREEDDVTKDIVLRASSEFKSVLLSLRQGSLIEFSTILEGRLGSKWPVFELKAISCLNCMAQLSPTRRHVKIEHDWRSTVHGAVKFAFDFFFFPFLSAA

| SMILES | IC50 [2] | Percent Remaining Activity at 8 hrs after Dosing [1] | IC50 [3] | EC50 (Colo-205 cells) |
| --- | --- | --- | --- | --- |
| Cc1nc(NCc2cnn(Cc3ccc(C(F)(F)F)nc3)c2)nc2c1N(C)C(=O)[C@H](CCO)N2C [Compound 443, (7S)-7-(2-hydroxyethyl)-4,5,8-trimethyl-2-(((1-((6-(trifluoromethyl)pyridin-3-yl)methyl)-1H-pyrazol-4-yl)methyl)amino)-7,8-dihydropteridin-6(5H)-one] | 300 to 1000 nM | 100% | – | – |
| Cc1nc(NCc2cnn(Cc3ccc(Cl)nc3)c2)nc2c1N(C)C(=O)[C@H](CCO)N2C [Compound 445, (7S)-2-(((1-((6-chloropyridin-3-yl)methyl)-1H-pyrazol-4-yl)methyl)amino)-7-(2-hydroxyethyl)-4,5,8-trimethyl-7,8-dihydropteridin-6(5H)-one] | 300 to 1000 nM | 98% | – | – |
| Cc1nc(NCc2cnn(Cc3cc(F)c(F)c(F)c3)c2)nc2c1NC(=O)[C@H](C(C)C)N2C [Compound 449, (S)-7-isopropyl-4,8-dimethyl-2-(((1-(3,4,5-trifluorobenzyl)-1H-pyrazol-4-yl)methyl)amino)-7,8-dihydropteridin-6(5H)-one] | < 300 nM | 22% | – | – |
| COc1c(F)cc(Cn2cc(CNc3nc(C)c4c(n3)N(C)[C@@H](C(C)C)C(=O)N4)cn2)cc1F [Compound 450, (S)-2-(((1-(3,5-difluoro-4-methoxybenzyl)-1H-pyrazol-4-yl)methyl)amino)-7-isopropyl-4,8-dimethyl-7,8-dihydropteridin-6(5H)-one] | < 300 nM | 32% | – | – |
| Cc1nc(NCc2cnn(Cc3ccnc(C(F)(F)F)c3)c2)nc2c1NC(=O)[C@H](C1CC1)N2C [Compound 455, (S)-7-cyclopropyl-4,8-dimethyl-2-(((1-((2-(trifluoromethyl)pyridin-4-yl)methyl)-1H-pyrazol-4-yl)methyl)amino)-7,8-dihydropteridin-6(5H)-one] | < 300 nM | 63% | – | – |
| Cc1nc(N[C@H]2C[C@@H](Cn3nccc3C(F)(F)F)C2)nc2c1NC(=O)[C@H](COC(C)(C)C)N2C [Compound 723, (S)-7-(tert-butoxymethyl)-4,8-dimethyl-2-((cis-3-((5-(trifluoromethyl)-1H-pyrazol-1-yl)methyl)cyclobutyl)amino)-7,8-dihydropteridin-6(5H)-one] | < 300 nM | – | 60 to 600 nM | 600 to 2000 nM |

More lines, main results first:

| IC50 [2] | SMILES | Percent Remaining Activity at 8 hrs after Dosing [1] | IC50 [3] | EC50 (Colo-205 cells) |
| --- | --- | --- | --- | --- |
| < 300 nM | Cc1nc(NCc2cnn(Cc3ccc(F)cc3C#N)c2)nc2c1N(C)C(=O)[C@H](C)N2C [Compound 63, (7S)-5-fluoro-2-((4-(((4,5,7,8-tetramethyl-6-oxo-5,6,7,8-tetrahydropteridin-2-yl)amino)methyl)-1H-pyrazol-1-yl)methyl)benzonitrile] | 9% | – | – |
| < 300 nM | Cc1nc(NCc2cnn(Cc3ccc(OC(C)C)nc3)c2)nc2c1NC(=O)[C@H](C)N2C [Compound 135, (7S)-2-(((1-((6-isopropoxypyridin-3-yl)methyl)-1H-pyrazol-4-yl)methyl)amino)-4,7,8-trimethyl-7,8-dihydropteridin-6(5H)-one] | 43% | – | – |
| < 300 nM | Cc1nc(NCc2cnn([C@H]3C[C@H]3c3ccc(F)cc3)c2)nc2c1NC(=O)[C@H](C)N2C [Compound 155, (7S)-2-(((1-((1S,2S)-2-(4-fluorophenyl)cyclopropyl)-1H-pyrazol-4-yl)methyl)amino)-4,7,8-trimethyl-7,8-dihydropteridin-6(5H)-one] | 17% | – | – |
| < 300 nM | Cc1nc(NCc2cnn(Cc3ccc(C#N)nc3)c2)nc2c1NC(=O)[C@H](C(C)C)N2C [Compound 431, (7S)-5-((4-(((7-isopropyl-4,8-dimethyl-6-oxo-5,6,7,8-tetrahydropteridin-2-yl)amino)methyl)-1H-pyrazol-1-yl)methyl)picolinonitrile] | 29% | – | – |
| < 300 nM | Cc1nc(NCc2cnn(Cc3ccc(Cl)nc3)c2)nc2c1NC(=O)[C@H](C1CC1)N2C [Compound 434, (7S)-2-(((1-((6-chloropyridin-3-yl)methyl)-1H-pyrazol-4-yl)methyl)amino)-7-cyclopropyl-4,8-dimethyl-7,8-dihydropteridin-6(5H)-one] | 26% | – | – |
| < 300 nM | Cc1nc(NCc2cnn(Cc3ccc(C(F)(F)F)nc3)c2)nc2c1NC(=O)[C@H](C(C)(C)C)N2C [Compound 436, (7S)-7-(tert-butyl)-4,8-dimethyl-2-(((1-((6-(trifluoromethyl)pyridin-3-yl)methyl)-1H-pyrazol-4-yl)methyl)amino)-7,8-dihydropteridin-6(5H)-one] | 16% | – | – |
| < 300 nM | Cc1nc(NCc2cnn(Cc3ccc(F)nc3)c2)nc2c1NC(=O)[C@H](C(C)(C)C)N2C [Compound 437, (7S)-7-(tert-butyl)-2-(((1-((6-fluoropyridin-3-yl)methyl)-1H-pyrazol-4-yl)methyl)amino)-4,8-dimethyl-7,8-dihydropteridin-6(5H)-one] | 20% | – | – |
| < 300 nM | Cc1nc(NCc2cnn(Cc3ccnc(C(F)(F)F)c3)c2)nc2c1NC(=O)[C@H](C(C)C)N2C [Compound 447, (S)-7-isopropyl-4,8-dimethyl-2-(((1-((2-(trifluoromethyl)pyridin-4-yl)methyl)-1H-pyrazol-4-yl)methyl)amino)-7,8-dihydropteridin-6(5H)-one] | 76% | – | – |
